These results are taken from patent US10179799B2, “Method for producing P1,P4-di(uridine 5′-) tetraphosphate” (YAMASA CORPORATION, priority 2012, dated 2019).

Where two headings read alike, the source gives them in different places.

A short description of this series: Determination of stability of UTP and related compound (solution left to stand, HPLC, decomposition rate). In kind it is physicochemical. As to the method: In order to evaluate stability of UTP free, stability of aqueous solutions of UTP free and UTP sodium salt (UTP-Na) and a dimethylacetamide solution of UTP-tributylamine salt (UTP-TBA) was examined. Also, stability of aqueous solutions of UDP free and UDP-Na as comparison control was also determined. The solution of each substance was left to stand for a certain period at −20° C., 25° C. or 50° C., and the concentration of each substance was determined by HPLC to calculate a decomposition rate. Here, the decomposition rate was defined as the following [equation 1]. Decomposition rate (%) of each substance={100−(HPLC % of each substance at determination/HPLC % of each substance at test start)×100} [equation 1]

The mark [1] stands for this setting: aqueous solution left to stand at 25° C., 8 h, 16 mM UTP free, 10 mM UDP free.
Where [2] appears, read: aqueous solution left to stand at 25° C., 24 h, 16 mM UTP free, 10 mM UDP free.
Where [3] appears, read: 50° C., 8 h, 35 mM UTP-TBA in dimethylacetamide solution, 40 mM UTP-Na and 40 mM UDP-Na in aqueous solution.
Setting [4] is: 50° C., 24 h, 35 mM UTP-TBA in dimethylacetamide solution, 40 mM UTP-Na and 40 mM UDP-Na in aqueous solution.

As to `O=c1ccn([C@@H]2O[C@H](COP(=O)(O)OP(=O)(O)OP(=O)(O)O)[C@@H](O)[C@H]2O)c(=O)[nH]1` [UTP free, uridine 5′-triphosphoric acid], the “Stability during storage of the solution” value is “clearly low stability”. Under setting [1], the Decomposition rate is reported as 4%. Also, the Decomposition rate under setting [2] is 12%. Where the note is “aqueous solution left to stand at −20° C., 18 h, 16 mM UTP free”, this compound registered a Decomposition rate of 4%.

Turning to `O=c1ccn([C@@H]2O[C@H](COP(=O)([O-])OP(=O)([O-])O)[C@@H](O)[C@H]2O)c(=O)[nH]1.[Na+].[Na+]` [UDP-Na, UDP sodium salt], the Decomposition rate stood at 2% under setting [3] and 5% under setting [4].

Take `CCCCN(CCCC)CCCC.O=c1ccn([C@@H]2O[C@H](COP(=O)(O)OP(=O)(O)OP(=O)(O)O)[C@@H](O)[C@H]2O)c(=O)[nH]1` [UTP-TBA, UTP-tributylamine salt]: the Decomposition rate under setting [3] stood at 7% and the Decomposition rate under setting [4] is given as 18%. The “Stability during storage of the solution” value (compared to UTP sodium salt, UDP free and UDP sodium salt) is “clearly low stability”.

In turn, `O=c1ccn([C@@H]2O[C@H](COP(=O)(O)OP(=O)(O)O)[C@@H](O)[C@H]2O)c(=O)[nH]1` [UDP free, uridine 5′-diphosphoric acid] came in with a Decomposition rate under setting [1] of 0% and a Decomposition rate under setting [2] of 0%.

Compound `O=c1ccn([C@@H]2O[C@H](COP(=O)([O-])OP(=O)([O-])OP(=O)([O-])O)[C@@H](O)[C@H]2O)c(=O)[nH]1.[Na+].[Na+].[Na+]` [UTP-Na, UTP sodium salt] registered a Decomposition rate under setting [3] of 2% and a Decomposition rate under setting [4] of 6%.
